In PubChem BioAssay (NCI):
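Cells were grown in 96-well plates and exposed to each compound for 48 hours at five concentrations; endpoints were interpolated linearly between bracketing concentrations, or set to the highest concentration if not reached. GI50 marks 50% less growth. TGI is the concentration that stops growth completely.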

Tests used:
Experiment in all cases: DTP human tumour cell line panel, 48 h
A498 renal = tested on: A498 renal
A549 NSCLC = tested on: A549 NSCLC
ACHN renal = tested on: ACHN renal
CAKI-1 renal = tested on: CAKI-1 renal
CCRF-CEM leukemia = tested on: CCRF-CEM leukemia
HT29 colon = tested on: HT29 colon
MDA-MB-231 breast = tested on: MDA-MB-231 breast
HCC-2998 colon = tested on: HCC-2998 colon
MCF7 breast = tested on: MCF7 breast
SNB-75 CNS = tested on: SNB-75 CNS

| SMILES | TGI (A498 renal) [µM] | TGI (A549 NSCLC) [µM] | TGI (ACHN renal) [µM] | TGI (CAKI-1 renal) [µM] | TGI (CCRF-CEM leukemia) [µM] | TGI (HT29 colon) [µM] | TGI (MDA-MB-231 breast) [µM] | TGI (HCC-2998 colon) [µM] | TGI (MCF7 breast) [µM] | TGI (SNB-75 CNS) [µM] | GI50 (A498 renal) [µM] | GI50 (ACHN renal) [µM] | GI50 (CAKI-1 renal) [µM] | GI50 (MDA-MB-231 breast) [µM] | GI50 (SNB-75 CNS) [µM] | GI50 (A549 NSCLC) [µM] | GI50 (CCRF-CEM leukemia) [µM] | GI50 (HCC-2998 colon) [µM] | GI50 (HT29 colon) [µM] | GI50 (MCF7 breast) [µM] |
| --- | --- | --- | --- | --- | --- | --- | --- | --- | --- | --- | --- | --- | --- | --- | --- | --- | --- | --- | --- | --- |
| Cc1cccc2c1Oc1ccccc1C2NC(=O)c1ccc([N+](=O)[O-])cc1 (configuration not stated) | > 100 | > 100 | > 100 | > 100 | > 100 | > 100 | > 100 |  |  |  |  |  |  |  |  |  |  |  |  |  |
| CC1=C2C(=O)[C@H]3[C@@H](CC=C4C[C@@H](O)CC[C@@]43C)[C@@H]2CC[C@]12O[C@@H]1C[C@H](C)CN[C@H]1[C@H]2C | > 57.9 | > 64.2 | > 56.3 | > 59.2 | > 100 | > 100 | > 100 | > 82.8 | > 100 | > 54.4 |  |  |  |  |  |  |  |  |  |  |
| COc1nc(SC)nc2c1cnn2C1OC(C(O)CO)C(OC)C1O (configuration not stated) | > 100 | > 100 |  |  | > 100 | > 100 |  | > 100 | > 100 | > 100 |  |  |  |  |  |  |  |  |  |  |
| CCCCC(C)C1CCC2(C)C=CC(=O)C(C)=C2C1O (configuration not stated) | > 100 | > 100 |  | > 100 | > 100 | > 100 |  | > 100 | > 100 | > 100 |  |  |  |  |  |  |  |  |  |  |
| CCC1=CC2CN3CCc4c([nH]c5ccccc45)C(C(=O)OC)(C2)C13 (configuration not stated) | 108 | 82.5 |  | 46.5 | 252 | 60.4 |  | > 92.6 | 95.4 | 89.9 |  |  |  |  |  |  |  |  |  |  |
| NCCCNc1nc2ccccc2c2c(=O)c3cc(C(F)(F)F)ccc3sc12 | 3.23 |  | 2.94 | 2.84 |  |  | 2.75 |  |  | 2.96 | 1.73 | 1.59 | 1.51 | 1.4 | 1.53 |  |  |  |  |  |
| Cc1[nH]c(=O)nc(N/N=C/c2ccc(Cl)cc2)c1C(=O)NC(C)(CO)CO | > 100 |  | > 100 | > 100 | > 100 | > 100 |  | > 100 | > 100 | > 100 |  |  |  |  |  |  |  |  |  |  |
| CC1(C23CC4CC(CC(C4)C2)C3)n2c(=O)n(-c3ccccc3)c(=O)n2C1(C)C12CC3CC(CC(C3)C1)C2 (configuration not stated) | > 100 | > 100 | > 100 | > 100 | > 100 | > 100 | > 100 |  | > 100 | > 100 |  |  |  |  |  |  |  |  |  |  |
| CN1C2CC(=O)CC1[C@H](O)[C@@H]2O |  |  |  |  | > 100 | > 100 | > 100 | > 100 | > 100 |  |  |  |  |  |  |  |  |  |  |  |
| CCOC(=O)c1csc(NC(=O)CCN2CCCCC2)n1 | > 100 | > 100 | > 100 | > 100 | > 100 | > 100 | > 100 | > 100 | > 100 |  |  |  |  |  |  |  |  |  |  |  |
| COCC1CCCN1c1ccc(/C=C(/C#N)C(N)=S)cc1 (configuration not stated) | > 100 | > 100 | > 100 | > 100 | 20.6 | > 100 | 55.8 | > 100 | > 100 | > 100 | > 100 | > 100 | > 100 | 9.89 | 90.7 | > 100 | 5.04 | > 100 | > 100 | 69.4 |
| COc1cc(C2C(Cl)C(=O)N2NC(=O)c2ccccc2O)ccc1O (configuration not stated) | > 100 | > 100 | > 100 |  | > 100 | > 100 |  | > 100 |  |  |  |  |  |  |  |  |  |  |  |  |
